Experimental data published in PMC7470033, “In vitro inhibitory effect of lysionotin on the activity of cytochrome P450 enzymes” (Pharmaceutical Biology, 2020).

Key:
Format in all cases: in vitro ADME
CYP2C8 [1] = molecular target: T1, CYP2C8 (Homo sapiens, UniProt P10632); experiment: CYP2C8 inhibition in pooled human liver microsomes (paclitaxel 6α-hydroxylation); details: for inhibition model of CYP2C8: Lineweaver-Burk plots
T1 construct: Pooled HLMs were purchased from BD Biosciences Discovery Labware; tissue BD Biosciences Discovery Labware; host or cells: pooled human liver microsomes
T1 sequence (P10632 1-490): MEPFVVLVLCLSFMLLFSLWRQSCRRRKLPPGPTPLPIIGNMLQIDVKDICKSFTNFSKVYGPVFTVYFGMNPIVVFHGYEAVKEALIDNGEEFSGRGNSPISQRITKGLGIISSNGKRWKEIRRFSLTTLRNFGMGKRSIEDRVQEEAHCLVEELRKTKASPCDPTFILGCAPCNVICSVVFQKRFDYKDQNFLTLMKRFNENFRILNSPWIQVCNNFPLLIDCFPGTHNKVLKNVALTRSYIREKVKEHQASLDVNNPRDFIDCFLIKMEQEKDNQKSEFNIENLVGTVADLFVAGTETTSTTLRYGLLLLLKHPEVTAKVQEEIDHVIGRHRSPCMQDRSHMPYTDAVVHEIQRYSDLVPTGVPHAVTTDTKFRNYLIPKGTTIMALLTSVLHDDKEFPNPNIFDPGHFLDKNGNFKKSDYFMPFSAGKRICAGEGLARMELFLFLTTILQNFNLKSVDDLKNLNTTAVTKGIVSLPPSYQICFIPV
Description: (§1) In this study, lysionotin was incubated with eight CYP isoforms (i.e., 1A2, 3A4, 2A6, 2E1, 2D6, 2C9, 2C19 and 2C8) in pooled human liver microsomes to investigate the interaction between lysionotin and CYPs, which can provide direct evidence for the effect of lysionotin on the activity of CYPs. In vitro, phenacetin (CYP1A2), testosterone (CYP3A4), coumarin (CYP2A6), chlorzoxazone (CYP2E1), dextromethorphan (CYP2D6), diclofenac (CYP2C9), S-mephenytoin (CYP2C19) and paclitaxel (CYP2C8) were used as probe substrates to determine the effects of lysionotin on eight CYP enzymes. In addition, enzyme kinetic studies were conducted to determine the inhibition model of lysionotin on CYP enzymes.
(§2) All incubations were performed in triplicate, and the mean values were utilised. The typical incubation systems contained 100 mM potassium phosphate buffer (pH 7.4), NADPH generating system (1 mM NADP^+, 10 mM glucose-6-phosphate, 1 U/mL of glucose-6-phosphate dehydrogenase, and 4 mM MgCl2), the appropriate concentration of HLMs, a corresponding probe substrate and lysionotin (or positive inhibitor for different probe reactions) in a final volume of 200 μL.
(§3) The concentration of lysionotin was 100 μM, and the positive inhibitor concentrations were as follows: 10 μM furafylline for CYP1A2, 1 μM ketoconazole for CYP3A4, 10 μM tranylcypromine for CYP2A6, 50 μM clomethiazole for CYP2E1, 10 μM quinidine for CYP2D6, 10 μM sulfaphenazole for CYP2C9, 50 μM tranylcypromine for CYP2C19, 5 μM montelukast for CYP2C8. Probe substrates, positive inhibitors (except for dextromethorphan and quinidine, which were dissolved in water), and lysionotin were dissolved in methanol, with a final concentration of 1% (v/v), and 1% neat methanol was added to the incubations without inhibitor. There was a 3 min preincubation period (at 37 °C) before the reaction was initiated by adding an NADPH-generating system. The reaction was terminated by adding a 100 μL acetonitrile (10% trichloroacetic acid for CYP2A6) internal standard mix, and the solution was placed on ice. The mixture was centrifuged at 12,000 rpm for 10 min, and an aliquot (50 μL) of supernatant was transferred for HPLC analysis. The instrument used in this study was Agilent 1260 series instrument with DAD and FLD detector, and the quantitative assay for the corresponding metabolites was performed as previously reported and the detection conditions are summarised in Table 2 (He et al. [2015]; Lang et al. [2017]; Zhang et al. [2017]). […]
(§4) The enzyme kinetic parameters for the probe reaction were estimated from the best fit line, using least-squares linear regression of the inverse substrate concentration versus the inverse velocity (Lineweaver-Burk plots), and the mean values were used to calculate Vmax and Km. Inhibition data from the experiments that were conducted using multiple compound concentrations were represented by Dixon plots, and inhibition constant (Ki) values were calculated using non-linear regression according to the following equation: v=(VmaxS)/(Km(1+I/Ki+S)for competitive inhibition v=(VmaxS)/[(Km+S((1+I/Ki)] for non-competitive inhibition where I is the concentration of the compound, Ki is the inhibition constant, S is the concentration of the substrate, and Km is the substrate concentration at half the maximum velocity (Vmax) of the reaction. The mechanism of the inhibition was inspected using the Lineweaver-Burk plots and the enzyme inhibition models. […]

CYP2C8 [2] = molecular target: T1, CYP2C8; experiment: Time-dependent inhibition study of CYP2C8 in HLMs; details: 20 μM lysionotin, 0–30 min
Description: To determine whether lysionotin could inhibit the activity of CYP3A4, 2C19, and 2C8 in a time-dependent manner, lysionotin (20 μM) was pre-incubated with HLMs (1 mg/mL) in the presence of an NADPH-generating system for 30 min at 37 °C. After incubation, an aliquot (20 μL) was transferred to another incubation tube (final volume 200 μL) containing an NADPH-generating system and probe substrates whose final concentrations were approximate to Km. Then, further incubations were performed to measure the residual activity. After being incubated for 0, 5, 10, 15, and 30 min, the reactions were terminated by adding a 100 μL acetonitrile internal standard mix and then placed on ice; the corresponding metabolites were determined by HPLC.

CYP2C19 = molecular target: T2, CYP2C19 (Homo sapiens, UniProt P33261); experiment: CYP2C19 inhibition in pooled human liver microsomes (S-mephenytoin 4-hydroxylation); details: for inhibition model of CYP2C19: Lineweaver-Burk plots
T2 construct: Pooled HLMs were purchased from BD Biosciences Discovery Labware; tissue BD Biosciences Discovery Labware; host or cells: pooled human liver microsomes
T2 sequence (P33261 whole entry): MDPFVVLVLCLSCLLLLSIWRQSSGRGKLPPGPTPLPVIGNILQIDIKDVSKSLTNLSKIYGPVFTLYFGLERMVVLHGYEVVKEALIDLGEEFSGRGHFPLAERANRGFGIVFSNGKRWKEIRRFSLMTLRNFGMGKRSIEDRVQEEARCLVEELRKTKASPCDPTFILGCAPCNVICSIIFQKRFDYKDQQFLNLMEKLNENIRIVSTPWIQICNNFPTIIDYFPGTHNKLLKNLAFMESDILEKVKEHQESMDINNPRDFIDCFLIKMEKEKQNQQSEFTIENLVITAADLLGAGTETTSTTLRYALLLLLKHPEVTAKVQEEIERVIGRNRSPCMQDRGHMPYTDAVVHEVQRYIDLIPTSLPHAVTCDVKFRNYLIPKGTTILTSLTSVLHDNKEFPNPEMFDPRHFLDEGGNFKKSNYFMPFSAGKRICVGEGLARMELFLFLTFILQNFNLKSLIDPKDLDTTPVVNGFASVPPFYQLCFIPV
Description: as §1, §2, §3, §4

CYP2A6 = molecular target: T3, CYP2A6 (Homo sapiens, UniProt P11509); experiment: CYP2A6 inhibition in pooled human liver microsomes (coumarin 7-hydroxylation); details: 100 μM lysionotin, pooled HLMs, p > 0.05
T3 construct: Pooled HLMs were purchased from BD Biosciences Discovery Labware; tissue BD Biosciences Discovery Labware; host or cells: pooled human liver microsomes
T3 sequence (P11509 1-494): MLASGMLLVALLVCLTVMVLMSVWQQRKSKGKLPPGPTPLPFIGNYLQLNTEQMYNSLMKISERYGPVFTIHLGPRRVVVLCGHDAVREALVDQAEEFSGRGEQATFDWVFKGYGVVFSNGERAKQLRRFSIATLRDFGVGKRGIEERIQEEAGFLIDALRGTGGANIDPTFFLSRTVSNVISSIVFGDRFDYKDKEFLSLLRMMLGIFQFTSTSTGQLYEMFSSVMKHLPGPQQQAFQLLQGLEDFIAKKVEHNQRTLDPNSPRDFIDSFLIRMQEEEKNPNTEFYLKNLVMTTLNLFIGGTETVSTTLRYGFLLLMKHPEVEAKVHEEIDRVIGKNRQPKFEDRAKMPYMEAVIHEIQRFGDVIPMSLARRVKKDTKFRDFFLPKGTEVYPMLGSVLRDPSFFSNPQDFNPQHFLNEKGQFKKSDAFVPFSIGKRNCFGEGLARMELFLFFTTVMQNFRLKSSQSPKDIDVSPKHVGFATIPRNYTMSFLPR
Description: (§5) In this study, lysionotin was incubated with eight CYP isoforms (i.e., 1A2, 3A4, 2A6, 2E1, 2D6, 2C9, 2C19 and 2C8) in pooled human liver microsomes to investigate the interaction between lysionotin and CYPs, which can provide direct evidence for the effect of lysionotin on the activity of CYPs. In vitro, phenacetin (CYP1A2), testosterone (CYP3A4), coumarin (CYP2A6), chlorzoxazone (CYP2E1), dextromethorphan (CYP2D6), diclofenac (CYP2C9), S-mephenytoin (CYP2C19) and paclitaxel (CYP2C8) were used as probe substrates to determine the effects of lysionotin on eight CYP enzymes. In addition, enzyme kinetic studies were conducted to determine the inhibition model of lysionotin on CYP enzymes. […]
(§6) The concentration of lysionotin was 100 μM, and the positive inhibitor concentrations were as follows: 10 μM furafylline for CYP1A2, 1 μM ketoconazole for CYP3A4, 10 μM tranylcypromine for CYP2A6, 50 μM clomethiazole for CYP2E1, 10 μM quinidine for CYP2D6, 10 μM sulfaphenazole for CYP2C9, 50 μM tranylcypromine for CYP2C19, 5 μM montelukast for CYP2C8. […] The instrument used in this study was Agilent 1260 series instrument with DAD and FLD detector, and the quantitative assay for the corresponding metabolites was performed as previously reported and the detection conditions are summarised in Table 2 (He et al. [2015]; Lang et al. [2017]; Zhang et al. [2017]). […]

CYP2D6 = molecular target: T4, CYP2D6 (Homo sapiens, UniProt P10635); experiment: CYP2D6 inhibition in pooled human liver microsomes (dextromethorphan O-demethylation); details: 100 μM lysionotin, pooled HLMs, p > 0.05
T4 construct: Pooled HLMs were purchased from BD Biosciences Discovery Labware; tissue BD Biosciences Discovery Labware; host or cells: pooled human liver microsomes
T4 sequence (P10635 whole entry): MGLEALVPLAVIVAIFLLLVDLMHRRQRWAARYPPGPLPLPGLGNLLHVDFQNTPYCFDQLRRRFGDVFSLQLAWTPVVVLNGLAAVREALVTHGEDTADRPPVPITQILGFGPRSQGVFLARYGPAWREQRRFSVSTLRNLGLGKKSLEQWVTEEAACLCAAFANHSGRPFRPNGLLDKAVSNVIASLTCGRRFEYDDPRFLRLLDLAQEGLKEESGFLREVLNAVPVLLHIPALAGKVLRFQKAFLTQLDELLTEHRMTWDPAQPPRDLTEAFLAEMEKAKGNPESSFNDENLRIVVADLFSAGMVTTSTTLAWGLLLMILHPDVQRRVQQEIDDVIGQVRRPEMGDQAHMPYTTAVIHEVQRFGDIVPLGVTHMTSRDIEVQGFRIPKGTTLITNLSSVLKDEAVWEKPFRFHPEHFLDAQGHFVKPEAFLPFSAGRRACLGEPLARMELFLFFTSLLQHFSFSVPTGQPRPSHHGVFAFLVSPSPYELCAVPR
Description: as §5, §6

## COc1ccc(-c2cc(=O)c3c(O)c(OC)c(O)c(OC)c3o2)cc1 [lysionotin, Lysionotin]
CYP2C8 [1]; 100 μM lysionotin, pooled HLMs
  activity of CYP2C8 decreased by: 67.22%
CYP2C8 [1]
  inhibition model of CYP2C8: competitively
CYP2C8 [1]; listed as Lysionotin
  inhibition model of CYP2C8: competitive
CYP2C8 [1]; competitive model, paclitaxel 5–20 μM, lysionotin 0–50 μM, pooled HLM
  Ki: 14.5 µM
CYP2C8 [1]; pooled HLMs, paclitaxel 6α-hydroxylation
  IC50: 30 µM
CYP2C8 [2]
  effect of incubation time on the inhibition of CYP2C8: relatively stable
CYP2C19; 100 μM lysionotin, pooled HLMs
  activity of CYP2C19 decreased by: 74.86%
CYP2C19
  inhibition model of CYP2C19: competitively
CYP2C19; listed as Lysionotin
  inhibition model of CYP2C19: competitive
CYP2C19; competitive model, mephenytoin 50–200 μM, lysionotin 0–50 μM, pooled HLM
  Ki: 12.4 µM
CYP2C19; pooled HLMs, S-mephenytoin 4-hydroxylation
  IC50: 25 µM
CYP2A6
  effect on the activity of CYP2A6: not affected
CYP2D6
  effect on the activity of CYP2D6: not affected
